We go through two compounds from US6936266B2, “Desquamation/epidermal renewal of the skin and/or combating skin aging” (L'Oreal, priority 1998, dated 2005).

The test has as its system differentiated human keratinocytes. The test can be described thus: in vitro screening of an active agent on desquamation (release of corneocytes, cellular detachment index by flow cytometry). The conditions noted are these: for % of activity relative to the control (cellular detachment index, difference between T60 and T0): compounds at 5 × 10^−5M, 60 minutes after addition, control = identical culture in the absence of compound. It is filed as cell-based. The procedure: This test of in vitro screening of an active agent on desquamation was carried out on differentiated human keratinocytes. The principle of the test was based on the fact that desquamation induces the release of corneocytes. The desquamating power of the product tested will be proportionately greater the larger the number of corneocytes released.
The test procedure was as follows: starting with human skin biopsies, the keratinocytes obtained by separation of the epidermis were dissociated by enzymatic action with trypsin and were cultured at a concentration of 2×10^5 cells/ml. Growth and differentiation of the keratinocytes were obtained by culturing for 10 to 20 days in a specific medium. Next, after removing the culture medium, the activity of the test product was evaluated. To do this, two samples were taken at T0 and T60, i.e., just before adding the product and 60 minutes after this addition. The samples thus taken were analyzed with a flow cytometer in order to count the corneocyte population. The flow cytometer made it possible to distinguish the corneocyte and keratinocyte populations by treatment with acridine orange, which is specific for cellular DNA.
The cellular detachment index was determined by the difference between T60 and T0.
The test was carried out with cinnamic acid at a concentration of 5×10^−5M.
The results are given as a % of activity relative to the control consisting of an identical culture in the absence of compound.

Take `O=C(O)C=Cc1ccccc1` [Cinnamic acid]: the “% of activity relative to the control (cellular detachment index, difference between T60 and T0)” value was 59.2%. The “activity on the cellular detachment” value (cinnamic acid at 5×10^−5M) is on record as “high”.
For the compound `CCCCCCCC(=O)c1ccc(O)c(C(=O)O)c1` [Reference, 2-hydroxy-5-octanoylbenzoic acid, reference compound], the “% of activity relative to the control (cellular detachment index, difference between T60 and T0)” value is reported as 96.6%.
